# Data published in US20130345164A1, “TREATMENTS FOR CELLULAR PROLIFERATIVE DISORDERS AND IDENTIFICATION THEREOF” (UNIVERSITY OF MEDICINE AND DENTISTRY OF NEW JERSEY, priority 2010, published 2013).
# pIC50: −log10 of the molar value.
# Tests used:
# [1] = test system: p21 protein; test: Western Blot of p21 protein levels; format: cell-based, human
# [2] = test system: cells carrying p53 mutations; test: NCI60 screen Score ranking, p53 mutant case group vs p53 wild-type control group; conditions: p53 273/248 mutant case group vs p53 wild-type control group; NCI60 data
# Method: The Score calculations are carried out by: • (1) calculating a Responsive Fraction, i.e., the fraction of the case cell lines in the Case Group that are responsive to the test treatment; • (2) calculating a Non-Responsive Fraction i.e., the fraction of the control cell lines in the Control Group that are not responsive to the test treatment; and • (3) generating a Score of the test treatment according to Formula I:
# Score=the Responsive Fraction×the Non-Responsive Fraction.
# Among the NCI60 cell lines, 16 have wild-type p53 and 44 carry a p53 alteration (Ikediobi, O. N., et al., Mol Cancer Ther, 2006. 5(11): p. 2606-12). Mutations at amino acids 273 and 248 are the most frequent, with 5 and 4 cell lines, respectively. Given the abundance of p53 mutations at positions 273 and 248 within the NCI60 cell lines, and their location in the p53-DNA contact, cells carrying these mutations were chosen to form a case group to identify compounds with increased activity in tumors with a mutant p53. On the other hand, cells with a wild-type p53 were chosen to form a control group. The resulting groups are the following:
# • Leukemia: CCRF-CEM; • Lung Cancer: NCI-H322M; • Central Nervous System Cancer: SF-295, SF-268, SNB-19, and U251; • Colorectal Cancer: HT29 and SW-620; • Ovarian Cancer: OVCAR-3.
# • Breast Cancer: MCF7; • Colorectal Cancer: HCT-116; • Lung Cancer: A549, NCI-H226, and NCI-H460; • Leukemia: SR; • Melanoma: LOXIMVI, MALME-3M, SK-MEL-5, UACC-257, and UACC-62; • Ovarian Cancer: OVCAR-5; • Renal Cancer: A498, ACHN, CAKI-1, and UO-31.
# Using the protocols described above, the NCI60 treatment-cell line RG was constructed, taking RS=log10IC50-average(log10IC50) as a relative response sensitivity measurement and computing the average(log10IC50) over all the 60 cell lines. The Case and Control groups listed above were chosen, and the score in Formula I was computed for the 47,624 compounds in the NCI60 screen.
# [3] = test system: p53 targets (p21, PUMA, and MDM2); test: Quantitative real-time PCR of p53 targets; format: cell-based, human; conditions: TOV112D cells, treated vs untreated, normalized with actin
# Method: (§1) Each treatment had three independent repeats (labeled as 1, 2, and 3); (e) Comparison of the p53 expression signatures of 319726 treated cells with that of p53 wild type, p53 null and p53R175H cell lines in response to gamma-irradiation.
# Assays were carried out to compare the mRNA levels of several p53 targets (p21, PUMA, and MDM2) in the TOV112D (p53R175H), OVCAR3 (p53R248W) and SKOV3 (p53 null) upon treatment with the compounds. The relative gene expression level was normalized with the actin and the ratio of the treated level vs. untreated level was shown for each cell line.
# [4] = test system: MEF cells with exogenous p53 mutations; test: Apoptosis by Annexin V staining in MEF cells; format: cell-based, mouse; conditions: for induction of apoptosis (Annexin V staining): MEF cells with exogenous p53 mutations
# Description: (§2) Briefly, apoptosis was examined by Annexin V staining using standard methods.
# [5] = test system: 10(3) cells with human mutant p53 construct 273; test: Growth inhibition assay on isogenic murine fibroblast lines (96-well MTS); format: cell-based; conditions: cells with mutation p53^273
# Method: (§3) None of these compounds have been previously reported for their selective activity in cells with a mutant p53. To provide further evidence for their specificity, growth inhibition assays were performed on isogenic cell lines. Previously developed murine fibroblast cell line (10)3 (p53 null) and 10(3) with transfection of cytomegalovirus-human mutant p53 constructs (273, 248 and 175) (Dittmer, D., et al., Nature Genetics, 1993. 4(1): p. 42-6) were used as cases, while the murine fibroblast cell line 3T3 was used as a p53 wild type control.
# (§4) The compounds were validated using several different cell line systems. The first system used was a mouse embryonic fibroblast (MEF) system in which a p53 null MEF line, 10(3), was used as a parental line from which several stable CMV-mutant p53 transfectants were derived. The p53 mutations investigated were the “hot spot” mutants 175, 248, and 273. NIH3T3 fibroblasts were used as a p53 wild type control.
# [6] = test system: murine fibroblast cell line (10)3 (p53 null); test: as above; format: cell-based; conditions: p53^null cells
# Method: as §3, §4
# [7] = test system: 10(3) cells with human mutant p53 construct 248; test: as above; format: cell-based; conditions: cells with mutation p53^248
# Method: as §3, §4
# [8] = test system: 10(3) cells with human mutant p53 construct 175; test: as above; format: cell-based
# Method: as §3, §4
# [9] = molecular target: T1, p53 R175H (Homo sapiens, UniProt P04637, R175H); test: Immunoprecipitation of TOV112D lysates with mutant specific antibody PAB240; format: cell-based; conditions: detection with DO-1
# T1 construct: one ovarian carcinoma cell line containing a p53^R175H (TOV112D); endogenous in cells; host or cells: TOV112D human ovarian carcinoma cells
# Description: This conformational change was confirmed by immunoprecipitation of lysates from NSC319726-treated TOV112D cells using the mutant specific antibody PAB240. To that end, cell lysates were precipitated with PAB240 and detected with p53 (DO-1) antibody which recognizes all types of p53 protein conformations.
# [10] = test system: TOV112D (p53^R175H) ovarian carcinoma cell line; test: Sensitivity of human tumor cell line system; format: cell-based; conditions: 0.1 μM to 10 μM
# Description: Five tumor cell lines with endogenous […] mutations were compared, including two cell lines containing R248W mutations and three cell lines with a R273H mutation.
# [11] = molecular target: T2, p53^R175H mutant protein (Homo sapiens, UniProt P04637, R175H); test: Immuno-fluorescent staining with conformation-specific antibodies (PAB1620, PAB240, PAB1801) in TOV112D; format: cell-based
# T2 construct: one ovarian carcinoma cell line containing a p53^R175H (TOV112D); endogenous in cells; host or cells: TOV112D human ovarian carcinoma cells
# Description: Conformational change to wild type in TOV112D (p53R175H) was studied by immuno-fluorescent staining.
# [12] = test system: p53 response element (p53RE) in the p21 promoter, TOV112D cells; test: Luciferase reporter assay, p53RE of the p21 promoter; format: cell-based, human
# Method: (§5) To that end, luciferase activity assays were performed. Briefly, a 20-bp p53 response element (p53RE) was subcloned in the pGL3 vector to generate a luciferase reporter plasmid, which contained 20 base pairs of the p53 response element in the p21 promoter. The sequences of the 5′ site and 3′ site at −2.27 kb and −1.38 kb (SEQ ID NOs: 1 and 3) and their reverse complements (SEQ ID NOs: 2 and 4) are listed below:
# (§6) The reporter plasmid was transfected to the TOV112D cells or MEF cells with exogenous 248 or 273 mutations. Cells thus-transfected were treated with NSC319726 and subjected to luciferase assays. […] This effect was not seen in MEF cell lines expressing the 248 and 273 alleles, FIG. 10b.
# [13] = test system: TOV112D-p53R175H, OVCAR3-p53 R248W and SKOV3-p53 null; test: Apoptosis by Annexin V staining in ovarian carcinoma cell lines; format: cell-based, human; conditions: three ovarian carcinoma cell lines
# Description: as §2
# [14] = test system: p53^R172H/R172H mice tissues; test: Cleaved Caspase-3 immuno-staining and quantitative-PCR of p53 targets in mouse tissues; format: in vivo
# [15] = test system: murine fibroblast cell line 3T3 (p53 wild type control); test: Growth inhibition assay on isogenic murine fibroblast lines (96-well MTS); format: cell-based; conditions: FIG. 5c
# Method: as §3, §4
# [16] = test system: p53 wild type cell lines (H460, HCT116, MCF7 and WI38); test: Sensitivity of human tumor cell line system; format: cell-based; conditions: 0.1 μM to 10 μM
# [17] = test system: H460-p53 wildtype, MDAMB468-p53^R273H, HCT116-p53 null and TOV112D-p53^R175H xenograft tumors; test: Mouse xenograft tumor growth; format: in vivo; conditions: 1 μg/g intravenously once daily vs control
# [18] = Toxicity assays in p53 wild type, p53 null and p53^R172H mice; format: in vivo; conditions: for survival by day 4: 10 mg/kg intraperitoneally daily; for survival by day seven: 5 mg/kg
# Method: Toxicity assays were performed in p53 wild type, p53 null, and p53^R172H mice to determine if in vivo p53 mutant synthetic lethality could be detected.
# First, three groups of mice: […], p53^+/R172H/R172H mice, were compared.
# Next, the dose was lowered to 5 mg/kg and three groups of mice (p53 wild type, p53 null, and p53^R172H/R172H) were compared.
# [19] = test system: p53 response element (p53RE) in the p21 promoter, MEF cells with exogenous 248 or 273 mutations; test: Luciferase reporter assay, p53RE of the p21 promoter; format: cell-based, mouse; conditions: MEF cell lines expressing the 248 and 273 alleles
# Method: as §5, §6
# [20] = test system: p53 null cell line (SKOV3); test: Growth inhibition after silencing of p53 by siRNA; format: cell-based, human
# Description: (§7) In contrast, the sensitivity of the p53 null cell line (SKOV3) was not reduced by the siRNA in a similar fashion.
# [21] = test system: TOV112D cells; test: Growth inhibition after silencing of p53 by siRNA; format: cell-based, human; conditions: p53^R175H silenced by siRNA
# Description: as §7
# [22] = test system: panel of p53 targets; test: Microarray analysis of p53 target genes in TOV112D cells; format: cell-based, human; conditions: TOV112D vs untreated controls
# Description: as §1
# To examine the transcriptional activity of the NSC319725 and […]-treated cells on a larger scale, microarrays were used to analyze control- and compound-treated TOV112D cells.
# [23] = test system: MEF-p53^R172H cells; test: Viability assay in 12-well cultures (Guava PCA) in MEF lines of the same strain; format: cell-based, mouse; conditions: MEF-p53^R172H vs MEF-p53 wild type and MEF-p53 null
# Method: The sensitivity was measured in 12-well cultures for viability assay using the Guava PCA instrument following the manufacture protocol.
# [24] = cells carrying the p53^173 mutation (so in the source)
structure (smiles),measurement,setting,value
"COc1cc([C@@H]2c3cc4c(cc3[C@@H](O[C@@H]3O[C@@H]5CO[C@@H](C)O[C@H]5[C@H](O)[C@H]3O)[C@H]3COC(=O)[C@H]23)OCO4)cc(OC)c1O [Etoposide, reference compound]",p21 induction (Western blot),[1]; TOV112D (p53R175H),failed to induce p21
CC1=CC(=C(c2ccc(N)cc2)c2ccc(N)cc2)C=CC1=N.Cl [NSC93739],Score (Formula I),[2],0.50
COc1ccc2c(c1)c1c(C)c3c[n+](C)ccc3c(C)c1n2C [NSC155694],Score (Formula I),[2],0.55
CC(=NNC(=S)N(C)C)c1ccccn1 [NSC319725],p21 induction (Western blot),[1]; SKOV3 (p53 null),did induce p21
same,p21 induction (Western blot),[1]; TOV112D (p53R175H),did not induce p21
same,"induction of mRNA of p53 targets p21, PUMA, MDM2",[3],no such effect
same,induction of apoptosis (Annexin V staining),[4],did not induce apoptosis
same,pIC50,[5],~7.00
same,pIC50,[6],~7.00
same,pIC50,[7],~7.00
same,pIC50,[8]; [24],~8.00
same,amount of p53 R175H immunoprecipitated by mutant specific antibody PAB240,[9],not
same,Score (Formula I),[2],0.50
C/C(=N\NC(=S)N1CCC1)c1ccccn1 [NSC319726],sensitivity,[10],marked sensitivity
same,"conformational change of p53^R175H (recognised by PAB1620, no longer by PAB240)",[11],induced a change in conformation
same,p21 induction (Western blot),[1]; TOV112D (p53R175H),induced p21
same,"induction of mRNA of p53 targets p21, PUMA, MDM2",[3],induced all three targets
same,apoptosis response of (10)3/175,[4]; (10)3/175 compared with other MEF lines,strongest apoptosis response
same,induction of apoptosis (Annexin V staining),[4],induced apoptosis
same,increase in luciferase activity,[12],2.5 fold
same,induction of apoptosis (Annexin V staining),[13],induction of apoptosis in all three
same,cleaved Caspase-3 immuno-stained cells in spleen and thymus,"[14]; p53^R172H/R172H mice vs wild type controls, 24 hours treatment",abundantly more cleaved Caspase-3 immuno-stained cells
same,mRNA levels of p53 targets in tissues,"[14]; p53^R172H/R172H mice vs wild type, lung, spleen, thymus, small intestine, 24 hours",Elevated mRNA levels
same,pIC50,[5],~7.00
same,pIC50,[6],~7.00
same,pIC50,[7],~7.00
same,IC50,[15],not even reached
same,pIC50,"[8]; 175 mutant, FIG. 5c",8.10
same,pIC50,[8]; [24],~8.00
same,sensitivity,[16],relative lack of sensitivity
same,xenograft tumor growth inhibition,[17],inhibited mouse xenograft tumor growth in an allele specific mutant p53 dependent manner
same,mice alive by day seven,"[18]; mouse, in vivo, ip, 10 mg/kg",approximately 40%
same,survival by day 4,[18]; p53^+/R172H mice,30%
same,survival by day seven,[18]; p53^R172H/R172H mice,30%
same,survival by day seven,[18]; p53 null mice,100%
same,survival by day seven,[18]; p53 wild type mice,100%
same,survival by day 4,[18]; p53 wild type mice,70%
same,increase in luciferase activity,[19],not seen
same,amount of p53 R175H immunoprecipitated by mutant specific antibody PAB240,[9],greatly reduced
same,change of sensitivity on p53 siRNA,[20],not reduced
same,change of sensitivity on p53 siRNA,[21],reduced by four-fold
same,transcriptional levels of panel of p53 targets (microarray),[22],induced a large proportion of these genes
same,Score (Formula I),[2],0.52
same,sensitivity compared to p53 wild type and p53 null controls,[23],much higher sensitivity
CC(=O)c1ccc2c(c1)c1c(C)c3c[n+](C)ccc3c(C)c1n2C.[I-] [NSC612941],Score (Formula I),[2],0.55
Cc1ccc(S(=O)(=O)O)cc1.Cn1c2ccccc2n2c3ccccc3c3nnc(N)c-3c12 [NSC694266],Score (Formula I),[2],0.50
